According to patent US6080738A, “Heterocyclic amide compounds and medicinal uses thereof” (Yoshitomi Pharmaceuticals Industries, Ltd., priority 1996, dated 2000):

Biological target: T1, human heart chymase (Homo sapiens, UniProt P23946)
T1 sequence (P23946 22-247): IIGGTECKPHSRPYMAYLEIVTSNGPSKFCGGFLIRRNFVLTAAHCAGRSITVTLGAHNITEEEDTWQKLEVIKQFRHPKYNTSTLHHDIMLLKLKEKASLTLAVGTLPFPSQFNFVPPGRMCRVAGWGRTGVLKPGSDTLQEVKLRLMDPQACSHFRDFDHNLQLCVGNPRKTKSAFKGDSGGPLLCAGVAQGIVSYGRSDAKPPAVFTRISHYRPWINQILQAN
Assay: Inhibitory activity on amidase activity of human heart chymase
Type: biochemical
Details: 5 nM chymase; substrate succinyl-alanyl-alanyl-prolyl-phenylalanine-p-nitroanilide 2.5 mM; Tris-HCl (100 mM)-KCl (2 M), pH 7.5
Method: The effectiveness of the inhibitory activity of compound (I) and compound (XXVI) of the present invention was evaluated based on the inhibitory activity on amidase activity of human heart chymase, which was determined as in the following.
The inhibitory activity was quantitatively determined through variation in fractional residual activity of the enzyme caused by the inventive compound in defined serial concentration (<×1, <×10, <×100-fold equivalents) relative to 5 nM chymase in the presence of synthetic substrate, succinyl-alanyl-alanyl-prolyl-phenylalanine-p-nitroanilide (final concentration 2.5 mM). The inhibitory effect was analyzed by least square regression of Easson-Stedman plot (Proc. Roy. Soc. B. 1936, 121, p. 141) utilizing bimolecular equilibrium reaction linearization formula. The inhibitory activity was evaluated by the apparent inhibitory constant (Kiapp) obtained by this analysis and inhibitory constant (Ki) calculated from final substrate concentration in the reaction mixture and Km values separately determined. With regard to the quantlitative determination of initial rate of the enzyme reaction, the amount of p-nitroaniline produced by hydrolysis of the substrate was spectrophotometrically detected in terms of an increased absorbance which was obtained by subtracting absorbance at 650 nm wavelength from the absorbance at 405 nm. The chymase inhibitory activity of the compound of the present invention was calculated as ratio of residual activity in the presence of inhibitor relative to enzyme activity in the absence of inhibitor, and incorporation of the determination values was completed at a level less than initial rate guarantee absorbance at a concentration of the substrate used for the enzyme, after which analysis was performed.
The reaction mixture consisted of a buffer (pH 7.5, 140 μl) of Tris-HCl (100 mM) - KCl (2 M), the inventive compound dissolved in 20 μl of 10% dimethyl sulfoxide (DMSO), substrate dissolved in 20 μl of DMSO, and 20 μl of chymase, thus amounting to 200 μl in total.
Starting with the absorbance immediately after addition of the enzyme, increases in absorbance were recorded as a progressive curve taken precisely at equal time intervals.
From the above data, the difference between absorbances at completion of the reaction and immediately after addition was used to quantitatively determine the residual activity of the sample added with the inhibitor relative to a control wherein the inhibitor was not added. Alternatively, reaction rates of the control and the sample added with the inhibitor were calculated for certain time period (≥20 min) with successive shift (every 10 to 30 minutes) of the period, and the residual activity ratio was quantitatively determined and analyzed from the respective reaction rates averaged through the entire reaction time.

Structure (SMILES) | Ki
COC(=O)c1ccc2oc(C(=O)C(Cc3ccccc3)NC(=O)Cn3c(-c4ccc(F)cc4)ncc(NC(=O)OCc4ccccc4)c3=O)nc2c1 (centres unmarked) [Example 3, 2-[5-benzyloxycarbonylamino-2-(4-fluorophenyl)-6-oxo-1,6-dihydro-1-pyrimidinyl]-N-[1-[[5-(methoxycarbonyl)benzoxazol-2-yl]carbonyl]-2-phenylethyl]acetamide] | 1.3 µM
Nc1cnc(-c2ccc(F)cc2)n(CC(=O)NC(Cc2ccccc2)C(=O)c2nc3cc(C(=O)O)ccc3o2)c1=O (centres unmarked) [Example 5, 2-[5-amino-2-(4-fluorophenyl)-6-oxo-1,6-dihydro-1-pyrimidinyl]-N-[1-[(5-carboxylbenzoxazol-2-yl)carbonyl]-2-phenylethyl]acetamide] | 0.076 µM
COC(=O)c1ccc2nc(C(=O)C(Cc3ccccc3)NC(=O)Cn3c(-c4ccc(F)cc4)ncc(N)c3=O)oc2c1 (centres unmarked) [Example 7, 2-[5-amino-2-(4-fluorophenyl)-6-oxo-1,6-dihydro-1-pyrimidinyl]-N-[1-[[6-(methoxycarbonyl)benzoxazol-2-yl]carbonyl]-2-phenylethyl]acetamide] | 0.056 µM
O=CC(Cc1ccccc1)NC(=O)Cn1c(-c2ccc(F)cc2)ncc(NC(=O)OCc2ccccc2)c1=O (centres unmarked) [Example 9, 2-[5-benzyloxycarbonylamino-2-(4-fluorophenyl)-6-oxo-1,6-dihydro-1-pyrimidinyl]-N-(1-formyl-2-phenylethyl)acetamide] | 1.84 µM
Nc1ccc2oc(C(=O)C(Cc3ccccc3)NC(=O)Cn3c(-c4ccc(F)cc4)ncc(N)c3=O)nc2c1 (centres unmarked) [Example 15, 2-[5-amino-2-(4-fluorophenyl)-6-oxo-1,6-dihydro-1-pyrimidinyl]-N-[1-[(5-aminobenzoxazol-2-yl)carbonyl]-2-phenylethyl]acetamide] | 0.183 µM
Nc1cnc(-c2ccc(F)cc2)n(CC(=O)NC(Cc2ccccc2)C(=O)c2nc3cc(NS(=O)(=O)C(F)(F)F)ccc3o2)c1=O (centres unmarked) [Example 17, 2-[5-amino-2-(4-fluorophenyl)-6-oxo-1,6-dihydro-1-pyrimidinyl]-N-[1-[[5-(trifluoromethanesulfonylamino)benzoxazol-2-yl]carbonyl]-2-phenylethyl]acetamide] | 0.13 µM
O=C(Cn1c(-c2ccc(F)cc2)ncc(NC(=O)OCc2ccccc2)c1=O)NC(Cc1ccccc1)C(=O)c1nccs1 (centres unmarked) [Example 21, 2-[5-benzyloxycarbonylamino-2-(4-fluorophenyl)-6-oxo-1,6-dihydro-1-pyrimidinyl]-N-[2-phenyl-1-[(2-thiazolyl)carbonyl]ethyl]acetamide] | 0.111 µM
O=C(Cn1c(-c2ccc(F)cc2)ncc(NC(=O)OCc2ccccc2)c1=O)NC(Cc1ccccc1)C(=O)C1=NCCO1 (centres unmarked) [Example 23, 2-[5-benzyloxycarbonylamino-2-(4-fluorophenyl)-6-oxo-1,6-dihydro-1-pyrimidinyl]-N-[1-[(2-oxazolinyl)carbonyl]-2-phenylethyl]acetamide] | 0.048 µM
Nc1cnc(-c2ccc(F)cc2)n(CC(=O)NC(Cc2ccccc2)C(=O)c2nc3cc(F)ccc3o2)c1=O (centres unmarked) [Example 26, 2-[5-amino-2-(4-fluorophenyl)-6-oxo-1,6-dihydro-1-pyrimidinyl]-N-[1-[(5-fluorobenzoxazol-2-yl)carbonyl]-2-phenylethyl]acetamide] | 0.093 µM
Nc1cnc(-c2ccc(F)cc2)n(CC(=O)NC(Cc2ccc(F)cc2)C(=O)c2nc3ccccc3o2)c1=O (centres unmarked) [Example 40, 2-[5-amino-2-(4-fluorophenyl)-6-oxo-1,6-dihydro-1-pyrimidinyl]-N-[1-[(benzoxazol-2-yl)carbonyl]-2-(4-fluorophenyl)ethyl]acetamide] | 0.99 µM
Cc1cccc(-c2ncc(NC(=O)OCc3ccccc3)c(=O)n2CC(=O)NC(Cc2ccccc2)C(=O)c2nc3cc(C(N)=O)ccc3o2)c1 (centres unmarked) [Example 53, 2-[5-benzyloxycarbonylamino-6-oxo-2-(m-tolyl)-1,6-dihydro-1-pyrimidinyl]-N-[1-[(5-carbamoylbenzoxazol-2-yl)carbonyl]-2-phenylethyl]acetamide] | 0.066 µM
CCNC(=O)c1ccc2oc(C(=O)C(Cc3ccccc3)NC(=O)Cn3c(-c4cccc(C)c4)ncc(NC(=O)OCc4ccccc4)c3=O)nc2c1 (centres unmarked) [Example 55, 2-[5-benzyloxycarbonylamino-6-oxo-2-(m-tolyl)-1,6-dihydro-1-pyrimidinyl]-N-[1-[[5-(ethylaminocarbonyl)benzoxazol-2-yl]carbonyl]-2-phenylethyl]acetamid] | 0.059 µM
Nc1cnc(-c2cccnc2)n(CC(=O)NC(Cc2ccccc2)C(=O)c2nc3ncccc3o2)c1=O (centres unmarked) [Example 72, 2-[5-amino-6-oxo-2-(3-pyridyl)-1,6-dihydro-1-pyrimidinyl]-N-[1-[(oxazolo[4,5-b]pyridin-2-yl)carbonyl]-2-phenylethyl]acetamide] | 0.074 µM
COC(=O)c1ccc2oc(C(=O)C(Cc3ccccc3)NC(=O)Cn3c(-c4ccncc4)ncc(NC(=O)OCc4ccccc4)c3=O)nc2c1 (centres unmarked) [Example 73, 2-[5-benzyloxycarbonylamino-6-oxo-2-(4-pyridyl)-1,6-dihydro-1-pyrimidinyl]-N-[1-[[5-(methoxycarbonyl)benzoxazol-2-yl]carbonyl]-2-phenylethyl]acetamide] | 0.059 µM
CC(=O)Nc1cnc(-c2ccc(F)cc2)n(CC(=O)NC(Cc2ccccc2)C(=O)c2nc3ccccc3o2)c1=O (centres unmarked) [Example 94, 2-[5-acetamide-2-(4-fluorophenyl)-6-oxo-1,6-dihydro-1-pyrimidinyl]-N-[1-[(benzoxazol-2-yl)carbonyl]-2-phenylethyl]acetamide] | 0.058 µM

Stronger by Ki, values ahead:

Ki | Structure (SMILES)
0.045 µM | CCOC(=O)c1ccc2oc(C(=O)C(Cc3ccccc3)NC(=O)Cn3c(-c4cccnc4)ncc(N)c3=O)nc2c1 (centres unmarked) [Example 64, 2-[5-amino-6-oxo-2-(3-pyridyl)-1,6-dihydro-1-pyrimidinyl]-N-[1-[[5-(ethoxycarbonyl)benzoxazol-2yl]carbonyl]-2-phenylethyl]acetamide]
0.042 µM | COC(=O)c1ccc2oc(C(=O)C(Cc3ccccc3)NC(=O)Cn3c(-c4cccc([N+](=O)[O-])c4)ncc(N)c3=O)nc2c1 (centres unmarked) [Example 80, 2-[5-amino-2-(3-nitrophenyl)-6-oxo-1,6-dihydro-1-pyrimidinyl]-N-[1-[[5-(methoxycarbonyl)benzoxazol-2-yl]carbonyl]-2-phenylethyl]acetamide]
0.024 µM | O=C(Cn1c(-c2ccccc2)ncc(NC(=O)OCc2ccccc2)c1=O)NC(Cc1ccccc1)C(=O)c1nc2ncccc2o1 (centres unmarked) [Example 45, 2-(5-benzyloxycarbonylamino-6-oxo-2-phenyl-1,6-dihydro-1-pyrimidinyl)-N-[1-[(oxazolo[4,5-b]pyridin-2-yl)carbonyl]-2-phenylethyl]acetamide]
0.016 µM | CN(C)C(=O)c1ccc2oc(C(=O)C(Cc3ccccc3)NC(=O)Cn3c(-c4ccc(F)cc4)ncc(NC(=O)OCc4ccccc4)c3=O)nc2c1 (centres unmarked) [Example 31, 2-[5-benzyloxycarbonylamino-2-(4-fluorophenyl)-6-oxo-1,6-dihydro-1-pyrimidinyl]-N-[1-[[5-(dimethylaminocarbonyl)benzoxazol-2yl)carbonyl]-2-phenylethyl]acetamide]
0.012 µM | CCN(CC)C(=O)c1ccc2oc(C(=O)C(Cc3ccccc3)NC(=O)Cn3c(-c4cccc(C)c4)ncc(N)c3=O)nc2c1 (centres unmarked) [Example 58, 2-[5-amino-6-oxo-2-(m-tolyl)-1,6-dihydro-1-pyrimidinyl]-N-[1-[[5-(diethylaminocarbonyl)benzoxazol-2-yl]carbonyl]-2-phenylethyl]acetamide]
0.006 µM | COC(=O)c1ccc2oc(C(=O)C(Cc3ccccc3)NC(=O)Cn3c(-c4cccc(N)c4)ncc(N)c3=O)nc2c1 (centres unmarked) [Example 93, 2-[5-amino-2-(3-aminophenyl)-6-oxo-1,6-dihydro-1-pyrimidinyl]-N-[1-[[5-(methoxycarbonyl)benzoxazol-2-yl]carbonyl]-2-phenylethyl]acetamide]
0.005 µM | COC(=O)c1ccc2oc(C(=O)C(Cc3ccccc3)NC(=O)Cn3c(-c4cccc(OC)c4)ncc(N)c3=O)nc2c1 (centres unmarked) [Example 88, 2-[5-amino-2-(3-methoxyphenyl)-6-oxo-1,6-dihydro-1-pyrimidinyl]-N-[1-[[5-(methoxycarbonyl)benzoxazol-2-yl]carbonyl]-2-phenylethyl]acetamide]
0.002 µM | CCOC(=O)c1ccc2oc(C(=O)C(Cc3ccccc3)NC(=O)Cn3c(-c4ccccc4)ncc(N)c3=O)nc2c1 (centres unmarked) [Example 44]
